Test results reported in patent publication US9421211B2, “N,N′-diarylurea compounds and N,N′-diarylthiourea compounds as inhibitors of translation initiation” (President and Fellows of Harvard College, priority 2009, dated 2016).
Read-outs that look alike come from different tables or passages of the source.

Columns and labels:
[1] = tested on: eIF2.GTP.Met-tRNAi ternary complex; test: ATF-4 assay (firefly/renilla luciferase ratio) in CRL-2351 cell line; type: cell-based, human; conditions: for maximal fold induction / EC (activity threshold of 5): Homo sapiens; for maximal fold induction: read-out: ATF-4 Amax: maximal activity, ratio of firefly over renilla luciferase expression; for EC (activity threshold of 5): read-out: ATF-4 C[5] (μM): concentration corresponding to an activity threshold of 5; for Cmax: read-out: ATF-4 Cmax (μM): concentration corresponding to the maximal activity
Excerpt: For example, reducing amount of the ternary complex increases translation of ATF-4, which results in elevated expression of CHOP mRNA and protein. Therefore, expression of endogenous CHOP mRNA and CHOP protein in KLN-tTA/pBISA-DL^(ATF-4) cells were utilized as secondary assays to validate N,N′-diarylurea compounds as modifiers of the eIF2.GTP.Met-tRNAi ternary complex. […] To rule out the possibility that the activity of N,N′-diarylurea compounds was confined to a single cell type, the effects of these compounds on the ternary complex assay and the expression of CHOP mRNA was assayed in CRL-2351, PC-3, CRL-2813 human breast, prostate, and melanoma cancer cell lines respectively. For the reporter gene assay, the three human cell lines were co-transfected with tTA expression vector and the pBISA-DL^(ATF-4) dual luciferase expression vector shown in FIG. 6. […] The expression of CHOP mRNA was assayed by real time PCR in the same cell lines treated with 5 or 20 μM of each compound.
Stable and transient transfection: Cells were seeded at the density of 10^5 in 60-mm (stable transfection) or 10^4 cells per well of 96-well plate (transient transfection) plates and transfected one day later using the Qiagen Transfectamine transfection kit. For selection of stable cell lines, transfected cells were transferred to 100-mm plates and selected with appropriate antibiotics.
Dual luciferase assay: Cells or minced tumors expressing firefly and renilla luciferases were lysed and the extracts assayed with a glow type dual luciferase assay kit, per manufacturer's instruction (Promega Inc., Madison, Wis.).

[2] = tested on: KLN mouse squamous cell carcinoma cells; test: Cell proliferation SRB assay, KLN; type: cell-based
Procedure: (§1) Reduced availability of the ternary complex causes inhibition of translation initiation and thereby of cell proliferation. […] The effects of N,N′-diarylureas on the proliferation KLN mouse squamous cell carcinoma, CRL-2351 human breast, CRL-2813 human melanoma, A549 human lung and PC-3 human prostate cancer cell lines were tested.
(§2) Cell Growth Assay: Cell Growth was Measured by the SRB Assay.

[3] = tested on: CRL-2813 human melanoma cells; test: Cell proliferation SRB assay, CRL-2813; type: cell-based
Procedure: as §1, with “tested. […]” for “tested.”
as §2

[4] = tested on: CRL-2351 human breast cancer cells; test: Cell proliferation SRB assay, CRL-2351; type: cell-based; conditions: Homo sapiens
Procedure: as §1, §2

[5] = tested on: A549 human lung cancer cells; test: Cell proliferation SRB assay, A549; type: cell-based; conditions: read-out: IC50 (μM), concentration that inhibits cell proliferation by 50%
Procedure: as §1, §2

[6] = tested on: PC-3 human prostate cancer cells; test: Cell proliferation SRB assay, PC-3; type: cell-based; conditions: read-out: IC50 (μM), concentration that inhibits cell proliferation by 50%
Procedure: as §1
To determine if N,N′-diarylureas inhibit cell proliferation by reducing the availability of the ternary complex, the effect of N,N′-diarylureas on proliferation of previously described transgenic PC-3 human prostate cancer cell lines expressing either the non-phosphorylatable eIF2α-S51A mutant or the eIF2α-WT was studied. […] Reducing the expression of HRI, the eIF2α kinase that mediates N,N′-diarylurea induced phosphorylation of eIF2α similarly abrogates the effect of these agents on cell proliferation (FIGS. 15C and 15D).
as §2

[7] = In vivo toxicity, seven day administration to mice; conditions: female nude mice, 100 or 200 mg/kg daily for seven days, observed 15 days
Procedure: Five female nude mice each were treated with 200 mg/kg, 100 mg/kg #1781 in 15 μl DMSO or 15 μl DMSO daily for seven days. Mice were observed daily for signs of toxicity and weighed every other day for total of 15 days and then necropsy was performed. The average body of each group is plotted against the time.
To study toxicity effects, mice were treated with various doses of compound #1781 or vehicle.

[8] = KLN cells, read-out: IC50 (μM) by SRB assay, KLN
[9] = CRL2813, 2813 cells, read-out: IC50 (μM) by SRB assay, 2813
[10] = 2351 cells, read-out: IC50 (μM) by SRB assay, 2351
[11] = KLN, read-out: IC50 (μM), concentration that inhibits cell proliferation by 50%
[12] = CRL2813, CRL-2813, read-out: IC50 (μM), concentration that inhibits cell proliferation by 50%
[13] = CRL-2351, read-out: IC50 (μM), concentration that inhibits cell proliferation by 50%

Row | SMILES | Cmax [1] | IC50 [2, 8] | IC50 [3, 9] | IC50 [4, 10] | IC50 [2, 11] | IC50 [3, 12] | IC50 [4, 13] | IC50 [5] | IC50 [6] | maximal fold induction [1] | EC (activity threshold of 5) [1] | In vivo toxicity [7]
1 | O=C(Nc1ccc(Cl)c(C(F)(F)F)c1)Nc1ccc(Cl)c(C(F)(F)F)c1 [Compound 2, 1,3-bis[4-chloro-3-(trifluoromethyl)phenyl]urea] | 2.5 µM |  | 1.7 µM | 2.8 µM |  |  |  |  |  | 11 | 1.5 µM | 
2 | O=C(Nc1cc(C(F)(F)F)cc(C(F)(F)F)c1)Nc1cc(C(F)(F)F)cc(C(F)(F)F)c1 [Compound 3, 1,3-bis[3,5-bis(trifluoromethyl)phenyl]urea] | 2.5 µM | 3.9 µM | 0.1 µM | 0.6 µM |  |  |  |  |  | 11 | 1.5 µM | 
3 | Cc1ccc(NC(=O)Nc2ccc(Cl)c(C(F)(F)F)c2)cc1O [Compound 5, 3-[4-chloro-3-(trifluoromethyl)phenyl]-1-(3-hydroxy-4-methylphenyl)urea] | 10 µM | 20 µM | 1.6 µM | 9.3 µM |  |  |  |  |  | 11 | 6 µM | 
4 | Cc1ccc(NC(=O)Nc2cc(C(F)(F)F)cc(C(F)(F)F)c2)cc1O [Compound 6, 3-[3,5-bis(trifluoromethyl)phenyl]-1-(3-hydroxy-4-methylphenyl)urea] | 5 µM | 13.5 µM | 1 µM | 3.2 µM |  |  |  |  |  | 13 | 3 µM | 
5 | COc1cc(NC(=O)Nc2ccc(Cl)c(C(F)(F)F)c2)ccc1C [Compound 8] | 10 µM | 17.2 µM | 3 µM | 2.5 µM |  |  |  |  |  | 8 | 3 µM | 
6 | COc1cc(NC(=O)Nc2cc(C(F)(F)F)cc(C(F)(F)F)c2)ccc1C [Compound 9] | 20 µM | 20 µM | 0.7 µM | 2.2 µM |  |  |  |  |  | 12 | < 2.5 µM | 
7 | Cc1ccc(NC(=O)Nc2cc(C(F)(F)F)cc(C(F)(F)F)c2)cc1OCCN1CCNCC1 [Compound 25, 4-{2-[5-({[3,5-bis(trifluoromethyl)phenyl]carbamoyl}amino)-2-methylphenoxy]ethyl}piperazine-1,4-diium dichloride] | 10 µM |  | 3.1 µM | 5.2 µM |  |  |  |  |  | 10 | 6 µM | 
8 | O=C(Nc1ccc(Cl)c(Cl)c1)Nc1ncccc1O [Compound 26] | 40 µM | > 20 µM | 1.8 µM | 2 µM |  |  |  |  |  | 12 | 13 µM | 
9 | O=C(Nc1ccc(Cl)c(C(F)(F)F)c1)Nc1ncccc1O [Compound 27] | 40 µM | 12.5 µM | 0.8 µM | 1.2 µM |  |  |  |  |  | 6.5 | 10 µM | 
10 | O=C(Nc1ccc(Cl)c(Cl)c1)Nc1cc([N+](=O)[O-])ccc1Cl [Compound 1527] |  |  |  |  | > 20 µM | 20 µM | 9.5 µM | > 20 µM |  |  |  | 
11 | O=C(Nc1ccc(Cl)c(C(F)(F)F)c1)Nc1ccc2nnsc2c1 [Compound 1780] |  |  |  |  | 14.8 µM | 0.1 µM | 1.3 µM | 0.8 µM | 0.9 µM |  |  | 
12 | O=C(Nc1ccc(Cl)c(Cl)c1)Nc1ccc2nnsc2c1 [Compound 1781] |  |  |  |  | 17.1 µM | 0.5 µM | 3 µM | 1.2 µM | 1.1 µM |  |  | no apparent in vivo toxicity
13 | O=C(Nc1ccc(Cl)cc1)Nc1ccc2nonc2c1 [KM094748] |  |  |  |  | 8.5 µM | 0.3 µM | 0.1 µM | 1.3 µM | 1.4 µM |  |  | 

Further lines, with some results ahead:

Row | Cmax [1] | IC50 [2, 8] | IC50 [3, 9] | IC50 [4, 10] | IC50 [2, 11] | IC50 [3, 12] | IC50 [4, 13] | IC50 [5] | IC50 [6] | SMILES | maximal fold induction [1] | EC (activity threshold of 5) [1] | In vivo toxicity [7]
14 | 5 µM | > 20 µM | 0.8 µM | 2.6 µM |  |  |  |  |  | O=C(Nc1ccc(Cl)c(Cl)c1)Nc1ccc(Cl)c(Cl)c1 [Compound 1, 1,3-bis(3,4-dichlorophenyl)urea] | 11 | 2 µM | 
15 | 20 µM | > 20 µM | 1.8 µM | 9 µM |  |  |  |  |  | Cc1ccc(NC(=O)Nc2ccc(Cl)c(Cl)c2)cc1O [Compound 4, 3-(3,4-dichlorophenyl)-1-(3-hydroxy-4-methylphenyl)urea] | 13 | 11 µM | 
16 |  | > 20 µM | > 20 µM | 11 µM |  |  |  |  |  | COc1cc(NC(=O)Nc2ccc(Cl)c(Cl)c2)ccc1C [Compound 7] |  |  | 
17 | 20 µM | 13.5 µM | 5.3 µM | 5.8 µM |  |  |  |  |  | Cc1ccc(NC(=O)Nc2ccc(Cl)c(Cl)c2)cc1OCCN(C)C [Compound 11, 3-(3,4-dichlorophenyl)-1-{3-[2-(dimethylamino)ethoxy]-4-methylphenyl}urea] | 7.5 | 8 µM | 
18 | 10 µM | 12.3 µM | 2.8 µM | 2.5 µM |  |  |  |  |  | Cc1ccc(NC(=O)Nc2ccc(Cl)c(C(F)(F)F)c2)cc1OCCN(C)C [Compound 12, 3-[4-chloro-3-(trifluoromethyl)phenyl]-1-{3-[2-(dimethylamino)ethoxy]-4-methylphenyl}urea] | 7 | 7 µM | 
19 | 10 µM | 20 µM |  | 2.4 µM |  |  |  |  |  | Cc1ccc(NC(=O)Nc2ccc(Cl)c(Cl)c2)cc1OCCN1CCOCC1 [Compound 15, 3-(3,4-dichlorophenyl)-1-{4-methyl-3-[2-(morpholin-4-yl)ethoxy]phenyl}urea] | 5.5 | 9 µM | 
20 | 10 µM | > 20 µM | 0.9 µM | 2.7 µM |  |  |  |  |  | Cc1ccc(NC(=O)Nc2ccc(Cl)c(C(F)(F)F)c2)cc1OCCN1CCOCC1 [Compound 16, 3-[4-chloro-3-(trifluoromethyl)phenyl]-1-{4-methyl-3-[2-(morpholin-4-yl)ethoxy]phenyl}urea] | 7 | 7 µM | 
21 | 10 µM | 18.6 µM | 0.8 µM | 2.3 µM |  |  |  |  |  | Cc1ccc(NC(=O)Nc2cc(C(F)(F)F)cc(C(F)(F)F)c2)cc1OCCN1CCOCC1 [Compound 17, 3-[3,5-bis(trifluoromethyl)phenyl]-1-{4-methyl-3-[2-(morpholin-4-yl)ethoxy]phenyl}urea] | 9 | 3 µM | 
22 | 10 µM | > 20 µM | 5.1 µM | 4.5 µM |  |  |  |  |  | Cc1ccc(NC(=O)Nc2ccc(Cl)c(Cl)c2)cc1OCCN1CCNCC1 [Compound 23, 4-[2-(5-{[(3,4-dichlorophenyl)carbamoyl]amino}-2-methylphenoxy)ethyl]piperazine-1,4-diium dichloride] | 7.5 | 7 µM | 
